# Results reported in patent publication US20100113347A1 (priority 2007, published 2010).
# What was measured:
# [1] = system: mice with alloxan diabetes; assay: Blood cholesterol level in mice with alloxan diabetes (Example 1); assay type: in vivo; conditions: exenatide 7.5 mcg/kg
# Description: Diabetes was induced in white mice by a single intraperitoneal administration of alloxan in a dose of 135 mg/kg. […] Control animals received injections of saline solution. By day 31 of the experiment, the levels of blood glucose and cholesterol were measured after an overnight fast. Data are presented as a mean±standard deviation (n=5) of the measured levels of glucose or cholesterol. […] To determine the therapeutic effect of lowering the level of glucose, the following formula was used: […]
# To determine the therapeutic effect of lowering the level of cholesterol, the following formula was used:
# ΔCholesterol=Cholesterolmedication−Cholesterolcontrol.
# (§1) Statistical differences of the obtained results were assessed with the use of Student's t-test.
# [2] = system: mice with alloxan diabetes; assay: Blood glucose level in mice with alloxan diabetes (Example 1); assay type: in vivo; conditions: exenatide 7.5 mcg/kg
# Description: Diabetes was induced in white mice by a single intraperitoneal administration of alloxan in a dose of 135 mg/kg. […] Control animals received injections of saline solution. By day 31 of the experiment, the levels of blood glucose and cholesterol were measured after an overnight fast. Data are presented as a mean±standard deviation (n=5) of the measured levels of glucose or cholesterol. […] To determine the therapeutic effect of lowering the level of glucose, the following formula was used:
# ΔGlucose=Glucosemedication−Glucosecontrol.
# as §1
# [3] = day 31, after overnight fast, s.c. twice daily for 30 days, dalargin 8.8 mcg/kg
# [4] = day 31, after overnight fast, s.c. twice daily for 30 days, dalargin 8.8 mcg/kg, mean±SD, n=5
# [5] = dalargin 8.8 mcg/kg s.c. twice daily for 30 days
substance,measurement,setting,value
tirozil-2-alanil-glycil-phenylalanyl-leucil-arginine [Dalargin],Δ Cholesterol (Cholesterol medication − Cholesterol control),[1]; [3],-0.27 mmol/L
same,Cholesterol,[1]; [4],2.34 ± 0.16 mmol/L
same,effect on blood cholesterol after an overnight fast (in words),[1]; [5],inefficient
same,Δ Glucose (Glucose medication − Glucose control),[2]; [3],-0.9 mmol/L
same,Glucose,[2]; [4],10.6 ± 1.3 mmol/L
same,effect on blood glucose levels after an overnight fast (in words),[2]; [5],inefficient
